{"source": "patent US8623919B2", "about": "“Method of synthesizing S-allyl-cysteine analogues and their therapeutic application in treating myocardial infarction” (Fudan University, priority 2007, dated 2014)", "key": {"[1]": {"system": "H9c2 cells", "assay": "LDH leakage of H9c2 cells injured by H2O2", "type": "cell-based", "details": "for LDH Leakage: H2O2 200 μmol/L 2 hours", "method": "(§1) H9c2 cells were cultured in DMEM with 10% of fetal bovine serum, 37 degree C. and 5% CO2 incubator. The monolayer culture was split at a 1:4 ratio or harvested to perform experiments when confluence was 70-80%. Adjust the density of the cells to […] and inoculate the cells on a 96 well plate.\n(§2) H2O2 injury (Model) group, no SAC analogues treatment, under H2O2 200 μmol/L for 2 hours.\n(§3) PAG group, PAG 10^−4/mol/L\n(§4) SPRC dosage groups: SPRC 1E-7, SPRC 1E-6, SPRC 1E-5, the cell groups were treated with SPRC dosages of 10^−7 mol/L, 10^−6 mol/L, 10^−5 mol/L respectively.\n(§5) SPRC dosage+PAG groups: the cell group was treated with SPRC dosages of 10^−5 mol/L and PAG 10^−4 mol/L.\nThe cell samples (10^6 cells/sample) from each group were lysed under sterilized condition, and LDH contents in each samples were tested by pyruvic acid production method."}, "[2]": {"system": "CSE", "assay": "Western blot of CSE protein in left ventricle", "type": "in vivo, SD rats", "details": "MI rats, 50 mg/Kg/day, p<0.01", "text": "(§6) Animals were assigned and prepared the same as in Example 7, and dosages of SPRC and SAC were used the same in this example as in Example 7."}, "[3]": {"system": "H9c2 cells", "assay": "Mn-SOD activity of H9c2 cells injured by H2O2", "type": "cell-based", "details": "H2O2 injured H9c2; SPRC Low Dose 10^−7 mol/L", "method": "(§7) H9c2 cells were cultured same as Example 12, the cells were then divided into the groups same as Example 12.\nThe cells were lysed under sterilized condition, and lipid peroxidation experiments on the samples were performed. […] The effect of SPRC could be blocked by PAG, indicating SPRC mediates its effect on H9c2 cell by way of endogenous H2S."}, "[4]": {"system": "rats following MI injury", "assay": "Infarct size after TTC staining in rats following MI injury", "type": "in vivo, SD rats", "details": "50 mg/Kg/day intraperitoneal, 7 days before and 2 days after ligation, 48 h after surgery, saline 36.0±1.3%", "method": "SPRC and SAC were dissolved in saline (vehicle). Male SD rats (weight 200-250 g) were randomly assigned to […] treatment groups: group (1) Sham group: Sham-treated with saline (n=4), (2) Sham+SPRC group: Sham-treated with SPRC (50 mg/Kg/day) (n=4), (3) Sham+SAC group: Sham-treated with SAC (50 mg/Kg/day) (n=4), (4) MI group: MI treated with saline (n=8), (5) MI+SPRC group: MI treated with SPRC (50 mg/Kg/day) (n=8), (6) MI+SAC group: MI treated with SAC (50 mg/Kg/day) (n=8). Rats were pre-treated for seven days with each SAC analogues respectively via an intraperitoneal injection once daily before they were used for MI model studies. […] Briefly, the rats were anesthetized with 7% choral hydrate (60 mg/kg intraperitoneal injection), endotracheally intubated and mechanically ventilated with room air, respiratory rate 100 breaths/min, tidal volume 2.5 ml with a rodent ventilator (DHX-150, China). ECG was recorded in the anaesthetized animal for a period of one minute using the Animal Mflab200 amplifier (Produced in China). A left thoracotomy was performed and the third intercostal space was exposed. […] Then incisions were sutured and the chests were closed. […] Forty eight hours after the surgery, ECG was recorded for each rat in each group. […] To evaluate the effect of SPRC and SAC on MI, infarct size were measured after TTC staining (FIG. 12)."}, "[5]": {"system": "rats following MI injury", "assay": "Serum CK in rats (sham or MI)", "type": "in vivo, SD rats", "details": "Sham rats; 50 mg/Kg/day intraperitoneal", "method": "as §6\n(§8) Serum CK levels were detected with diagnostic kit (NJBI, China) according to the instructions. LDH were determined calorimetrically with a spectrophotometer. Lipid peroxidation was measured in terms of MDA content using the thiobarbituric acid (TBA) assay. […] With regard to lipid peroxidation, the levels of MDA in MI groups increased at 48 h after myocardial infarction. […] (FIG. 14)"}, "[6]": {"system": "H9c2 cells", "assay": "Apoptosis of H9c2 cells, Hoechst and PI double stain", "type": "cell-based", "details": "H2O2 injured H9c2; Hoechst 33342 and PI double stain", "method": "as §7\nCells were washed in PBS and then stained with Hoechst 33342 (10 μg/ml) and propidium iodide (10 μg/ml) for 10 min at 37° C. Cells were washed again with PBS and fixed with 3.7% paraformaldehyde (v/v). Each field of cells was photographed twice (magnification, ×400), using appropriate filters to examine and compare Hoechst 33342 and PI fluorescence staining in the same cells. […]. Apoptosis is of great damage to the structure and the function of the heart, which leads to heart failure."}, "[7]": {"system": "rats following MI injury", "assay": "SOD activity in plasma of rats (sham or MI)", "type": "in vivo, SD rats", "details": "50 mg/Kg/day intraperitoneal", "method": "as §6, §8"}, "[8]": {"system": "H9c2 cells", "assay": "Catalase activity in H2O2 injured H9c2 cells", "type": "cell-based", "details": "SPRC treatments", "text": "Similar experiments are done on cultured H9c2 cardiac muscle cells groups with the same experiment condition and different dosages of SPRC treatments. The results of the experiments confirm that endogenous H2S level in H2O2 injured H9c2 cells is elevated by SPRC treatments. […] It is also observed that the apoptosis of hypoxic myocardial cells is decreased, the survival rate of the in H2O2 injured H9c2 cells is increased and the LDH releasing from the in H2O2 injured H9c2 cells are reduced by three dosages of SPRC treatment."}, "[9]": {"system": "Bcl-2 mRNA", "assay": "RT-PCR of Bcl-2 mRNA in left ventricle", "type": "in vivo, SD rats", "details": "MI rats, 50 mg/Kg/day, p>0.05", "text": "as §6\nTo further verify the effects of SPRC and SAC, the expressions of Bcl-2, Bax and CSE mRNA were accessed by RT-PCR (FIG. 17). An isoform of the CSE gene was detected (GenBank; access no. AY641456). The relative amounts of CSE mRNA in Left ventricular subjected to MI were increase 3.3-fold and 1.5-fold following SPRC and SAC exposure as compared to the MI group."}, "[10]": {"system": "H9c2 cells", "assay": "H9c2 cell viability by MTT method after H2O2 injury", "type": "cell-based", "details": "H2O2 200 μmol/L 2 hours; SPRC Low Dose 10^−7 mol/L", "method": "as §1\nControl group, no SAC analogues treatment, no H2O2 injured process.\nas §2, §3, §4, §5\nH9c2 cell viability was assessed by MTT method. […] PAG is able to block the effect of SPRC."}}}
{"smiles": "C#CCSC[C@H](N)C(=O)O", "note": "[SPRC, S-propargyl-cysteine]", "values": [{"measurement": "LDH Leakage", "setting": "[1]; SPRC High Dose 10^−5 mol/L", "result": "43.9 ± 3.0", "unit": "%"}, {"measurement": "LDH Leakage", "setting": "[1]; SPRC Low Dose 10^−7 mol/L", "result": "51.4 ± 1.8", "unit": "%"}, {"measurement": "LDH Leakage", "setting": "[1]; SPRC middle Dose 10^−6 mol/L", "result": "50.0 ± 2.6", "unit": "%"}, {"measurement": "LDH leakage compared with model group", "setting": "[1]; H2O2 injured H9c2, SPRC groups (10^−7 to 10^−5 mol/L)", "result": "less LDH leakage than that of model group"}, {"measurement": "CSE protein expression", "setting": "[2]", "result": "up-regulated"}, {"measurement": "Mn-SOD Activity", "setting": "[3]", "result": "8.75 ± 0.68", "unit": "U/mgprot"}, {"measurement": "infarct size/total area of myocardium", "setting": "[4]", "result": "20.8±2.4", "unit": "%"}, {"measurement": "CK", "setting": "[5]", "result": "0.251 ± 0.032", "unit": "U/ml"}, {"measurement": "apoptosis of H9c2 cells", "setting": "[6]", "result": "effective on inhibiting apoptosis of H9c2 cells"}, {"measurement": "SOD", "setting": "[7]; MI rats, 48 h after MI", "result": "113.8 ± 1.5", "unit": "U/ml"}, {"measurement": "SOD", "setting": "[7]; Sham rats", "result": "161.2 ± 3.8", "unit": "U/ml"}, {"measurement": "catalase activity", "setting": "[8]", "result": "elevated"}, {"measurement": "Bcl-2 gene expression", "setting": "[9]", "result": "no significant differences"}, {"measurement": "H9c2 Cell Survive", "setting": "[10]", "result": "62.4 ± 1.6", "unit": "%"}]}
